# Where two headings read alike, the source gives them in different places.
# Experiments:
# Assay type in all cases: biochemical
# HSL = target: T1, HSL (Rattus norvegicus, UniProt P15304); experiment: Tributyrin assay; details: Example 6, Table 6; n=5, mean±SD
# T1 construct: The partially purified HSL can be stored at −70° C. for 4 to 6 weeks; from tissue; host or cells: rat epididymal fat cells (male Wistar rats)
# T1 sequence (P15304 1-768 isoform P15304-2): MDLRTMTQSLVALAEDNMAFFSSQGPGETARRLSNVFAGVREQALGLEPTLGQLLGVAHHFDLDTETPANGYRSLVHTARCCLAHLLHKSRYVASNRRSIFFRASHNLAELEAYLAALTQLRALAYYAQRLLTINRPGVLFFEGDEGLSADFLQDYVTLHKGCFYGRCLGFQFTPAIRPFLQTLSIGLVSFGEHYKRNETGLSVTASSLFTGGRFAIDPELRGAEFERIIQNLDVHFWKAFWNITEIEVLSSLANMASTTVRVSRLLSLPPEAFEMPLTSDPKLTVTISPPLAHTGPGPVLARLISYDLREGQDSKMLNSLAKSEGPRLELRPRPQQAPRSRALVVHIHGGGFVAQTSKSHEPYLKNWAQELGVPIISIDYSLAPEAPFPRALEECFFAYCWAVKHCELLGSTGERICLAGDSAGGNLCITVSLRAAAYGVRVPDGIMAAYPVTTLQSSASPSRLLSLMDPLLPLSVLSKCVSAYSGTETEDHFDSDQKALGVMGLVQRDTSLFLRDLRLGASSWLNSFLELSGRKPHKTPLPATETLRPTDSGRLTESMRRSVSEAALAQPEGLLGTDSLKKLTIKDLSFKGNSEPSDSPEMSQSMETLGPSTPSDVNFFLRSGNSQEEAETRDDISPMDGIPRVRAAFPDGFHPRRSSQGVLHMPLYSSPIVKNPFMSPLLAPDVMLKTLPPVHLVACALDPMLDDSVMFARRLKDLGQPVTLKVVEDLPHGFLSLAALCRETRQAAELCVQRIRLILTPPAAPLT
# Method: Isolated rat fat cells are obtained from epididymal fatty tissue from untreated male rats (Wistar, 220-250 g) by collagenase treatment according to published processes. The fat cells from 10 rats are washed three times by flotation with 50 ml each of homogenization buffer ([…], pH 7.4, 0.25 M sucrose, 1 mM ethylenediamine-N,N,N′,N′-tetraacetic acid (EDTA), 1 mM dithiothreitol (DTT), 10 μg/ml of leupeptin, 10 μg/ml of antipain, 20 μg/ml of pepstatin) and finally taken up in 10 ml of homogenization buffer. The fat cells are homogenized in a Teflon-in-glass homogenizer (Braun-Melsungen) by 10 strokes at 1500 rpm and 15° C. The homogenizate is centrifuged (Sorvall SM24 tubes, 5000 rpm, 10 min, 4° C.). […]
# For the preparation of the substrate, 5 μCi of [1-^14C]tributyrin (in toluene) are added to 1 ml of 20 mM unlabeled tributyrin (in acetonitrile). […] An equivalent volume (1 ml) of the upper phase is taken and the radioactivity is determined by liquid scintillation measurement.
# Substances are customarily tested in four independent batches. The inhibition of the enzymatic activity of the HSL by a test substance is determined by comparison with an uninhibited control reaction. The IC50 value is calculated by means of an inhibition curve using at least 10 concentrations of the test substance. […]
# bacterial lipase = experiment: Cleavage of NAG by bacterial lipase; details: for Increase in the absorption at 481 nm: Bacterial lipase, 60 min, NAG 0.05 mg/ml
# [1] = target: PC-specific phospholipase from Bacillus cereus (Bacillus cereus, UniProt P09598); details: for Increase in the absorption at 481 nm: PLC, 60 min, NAG 0.05 mg/ml
# Sequence of PC-specific phospholipase from Bacillus cereus (P09598 39-283 limits assumed): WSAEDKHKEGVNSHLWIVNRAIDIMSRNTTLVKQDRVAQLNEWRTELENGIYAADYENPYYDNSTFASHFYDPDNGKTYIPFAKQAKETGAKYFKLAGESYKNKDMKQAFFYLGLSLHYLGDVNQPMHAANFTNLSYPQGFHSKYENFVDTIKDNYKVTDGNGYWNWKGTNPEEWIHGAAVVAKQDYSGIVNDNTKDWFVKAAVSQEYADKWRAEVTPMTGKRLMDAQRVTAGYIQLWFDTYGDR
smiles,measurement,setting,value
O=C(CCCCCCCCCCCNc1ccc([N+](=O)[O-])c2nonc12)OCC(O)CO (racemic) [Compound 3],IC50,HSL,> 100 µM
O=C(CCCCCCCCCCCNc1ccc([N+](=O)[O-])c2nonc12)OCC(O)CO (centres unmarked) [Compound (3)],Increase in the absorption at 481 nm,bacterial lipase; enzyme 10 arb. units,36 ± 7 arb. units
same,Increase in the absorption at 481 nm,bacterial lipase; enzyme 20 arb. units,81 ± 10 arb. units
same,Increase in the absorption at 481 nm,bacterial lipase; enzyme 50 arb. units,148 ± 18 arb. units
same,Increase in the absorption at 481 nm,bacterial lipase; enzyme 75 arb. units,238 ± 29 arb. units
same,Increase in the absorption at 481 nm,bacterial lipase; enzyme 100 arb. units,341 ± 39 arb. units
same,Increase in the absorption at 481 nm,bacterial lipase; enzyme 150 arb. units,467 ± 57 arb. units
same,Increase in the absorption at 481 nm,bacterial lipase; enzyme 200 arb. units,748 ± 70 arb. units
same,Increase in the absorption at 481 nm,bacterial lipase; enzyme 250 arb. units,904 ± 83 arb. units
same,Increase in the absorption at 481 nm,bacterial lipase; enzyme 300 arb. units,1056 ± 143 arb. units
same,Increase in the absorption at 481 nm,bacterial lipase; enzyme 400 arb. units,1270 ± 187 arb. units
same,Activity relative to HSL,"bacterial lipase; bacterial lipase, conditions optimized for HSL",25%
same,Increase in the absorption at 481 nm,[1]; enzyme 10 arb. units,0 arb. units
same,Increase in the absorption at 481 nm,[1]; enzyme 20 arb. units,1 ± 1 arb. units
same,Increase in the absorption at 481 nm,[1]; enzyme 50 arb. units,2 ± 2 arb. units
same,Increase in the absorption at 481 nm,[1]; enzyme 75 arb. units,2 ± 1 arb. units
same,Increase in the absorption at 481 nm,[1]; enzyme 100 arb. units,3 ± 1 arb. units
same,Increase in the absorption at 481 nm,[1]; enzyme 150 arb. units,3 ± 1 arb. units
same,Increase in the absorption at 481 nm,[1]; enzyme 200 arb. units,5 ± 2 arb. units
same,Increase in the absorption at 481 nm,[1]; enzyme 250 arb. units,5 ± 2 arb. units
same,Increase in the absorption at 481 nm,[1]; enzyme 300 arb. units,7 ± 3 arb. units
same,Increase in the absorption at 481 nm,[1]; enzyme 400 arb. units,10 ± 3 arb. units
same,Activity relative to HSL,"[1]; bacterial PC-specific phospholipase, conditions optimized for HSL",virtually inactive
